Measurements: ChEMBL document CHEMBL3045923, “Using a selectivity index to evaluate logarithmic spraying in grass seed crops” (Pest Manag Sci, 2009)

Experiments:
[1] = Ratio of ED50 for Festuca rubra L. to ED50 for Poa pratensis subsp. Pratensis
[2] = system: Festuca rubra; assay: Toxicity against Festuca rubra applied applied during spring season using logarithmic sprayer; type: organism-based; settings: in vivo
[3] = system: Festuca rubra; assay: Toxicity against Festuca rubra applied using logarithmic sprayer; type: organism-based; settings: in vivo
[4] = system: Poa pratensis subsp. pratensis; assay: Herbicidal activity against Poa pratensis subsp. pratensis applied during spring season using logarithmic sprayer; type: functional
[5] = system: Poa pratensis subsp. pratensis; assay: Herbicidal activity against Poa pratensis subsp. pratensis applied using logarithmic sprayer; type: functional
[6] = Ratio of ED50 for Festuca pratensis to ED50 for Poa pratensis subsp. Pratensis
[7] = Ratio of ED50 for Festuca arundinacea to ED50 for Poa pratensis subsp. Pratensis
[8] = Ratio of ED50 for Lolium perenne to ED50 for Poa pratensis subsp. Pratensis
[9] = Selectivity index, ratio of ED10 for Festuca rubra L. to ED90 for Poa pratensis subsp. Pratensis

SMILES | ED50 [3] | ED50 [5] | further results
COc1cc(OC)nc(NC(=O)NS(=O)(=O)c2nc(C(F)(F)F)ccc2C(=O)O)n1 [FLUPYRSULFURON] | 0.024 kg/ha | 0.017 kg/ha | Ratio ED50 [1]: > 2; ED50 [2]: 0.04 kg/ha; ED50 [4]: 0.019 kg/ha
CCC(CC)Nc1c([N+](=O)[O-])cc(C)c(C)c1[N+](=O)[O-] [PENDIMETHALIN] | 3.531 L/ha | 1.761 L/ha | –
CCOC(=O)[C@@H](C)Oc1ccc(Oc2nc3ccc(Cl)cc3o2)cc1 [FENOXAPROP-P-ETHYL] | 1.137 kg/ha | 0.408 kg/ha | Ratio ED50 [6]: > 2; Ratio ED50 [1]: > 2; Ratio ED50 [7]: > 2; ED90 [5]: 0.68 kg/ha
O=C(O)CNCP(=O)(O)O [GLYPHOSATE] | 0.263 L/ha | – | –
COc1nc(C)nc(NC(=O)NS(=O)(=O)c2cc(I)ccc2C(=O)O)n1 [IODOSULFURON] | 0.367 kg/ha | 0.184 kg/ha | –
CCS(=O)(=O)c1nc2ccccn2c1S(=O)(=O)NC(=O)Nc1nc(OC)cc(OC)n1 [SULFOSULFURON] | 0.007 kg/ha | 0.014 kg/ha | Ratio ED50 [8]: > 1
CCCN(CCC)C(=O)SCc1ccccc1 [PROSULFOCARB] | – | 2.337 kg/ha | –
C#CCOC(=O)[C@@H](C)Oc1ccc(Oc2ncc(Cl)cc2F)cc1 [CLODINAFOP PROPARGYL] | 0.923 kg/ha | 0.192 kg/ha | Selectivity Index [9]: > 1
